Patent US20230146455A1, “TREATMENT OF INFLAMMATORY DISEASES WITH PEPTIDES AND PHARMACEUTICAL COMPOSITIONS” (Yuyu Pharma, Inc., priority 2020, published 2023)
Where “and” joins values, the source holds several entries; their conditions need not be identical. Equal entries are not always repeated. Where a SMILES comes first, the peptide text is derived from it. [ ]: non-standard residue; d: D form. Hyp = O=C(O)[C@@H]1C[C@@H](O)CN1

System: VEGF-A
Assay: Example 9 Luminex, LPS hPBMCs: VEGF-A
Format: cell-based, human
Conditions: for conc/live cell / Concentration: Bead VEGF-A; for Concentration: dilution 2.0
Procedure: Treatment Human PBMCs were pretreated with YY-101, YDE-011 and YDE-043 or reference compound; Xiidra® at various concentration (ranging from 1 nM to 100 uM) for 2 h before stimulation. An equal volume of 0.5% DMSO was used as a vehicle control. Then, the cells were treated with LPS at 5 ug/ml. The supernatants from treated cells were harvested at 24 h and placed in a 96 well for Luminex cytokine & chemokine profiling using a Luminex 200 multiplex assay (Luminex; R&D system, USA).
The main study arm with triplicate wells per group in a 24-well plate: • 1. Blank • 2. PBMC: 0.5% DMSO • 3. PBMC+LPS (5 ug/ml) • 4. PBMC+YY-101 100 uM • 5. PBMC+YY-101 10 uM • 6. PBMC+YY-101 1 uM • 7. PBMC+YY-101 0.1 uM • 8. PBMC+YY-101 0.01 uM • 9. PBMC+LPS (5 ug/ml)+Xiidra®100 uM • 10. PBMC+LPS (5 ug/ml)+Xiidra® 10 uM • 11. PBMC+LPS (5 ug/ml)+Xiidra® 1 uM • 12. PBMC+LPS (5 ug/ml)+Xiidra®0.1 uM • 13. PBMC+LPS (5 ug/ml)+Xiidra®0.01 uM • 14. PBMC+LPS (5 ug/ml)+Xiidra®0.001 uM • 15. PBMC+LPS (5 ug/ml)+YY-101 100 uM • 16. PBMC+LPS (5 ug/ml)+YY-101 10 uM • 17. PBMC+LPS (5 ug/ml)+YY-101 1 uM • 18. PBMC+LPS (5 ug/ml)+YY-101 0.1 uM • 19. PBMC+LPS (5 ug/ml)+YY-101 0.01 uM • 20. PBMC+LPS (5 ug/ml)+YY-101 0.001 uM • 21. PBMC+LPS (5 ug/ml)+YDE-011 100 uM • 22. PBMC+LPS (5 ug/ml)+YDE-011 10 uM • 23. PBMC+LPS (5 ug/ml)+YDE-011 1 uM • 24. PBMC+LPS (5 ug/ml)+YDE-011 0.1 uM • 25. PBMC+LPS (5 ug/ml)+YDE-011 0.01 uM • 26. PBMC+LPS (5 ug/ml)+YDE-011 0.001 uM • 27. PBMC+LPS (5 ug/ml)+YDE-043 100 uM • 28. PBMC+LPS (5 ug/ml)+YDE-043 10 uM • 29. PBMC+LPS (5 ug/ml)+YDE-043 1 uM • 30. PBMC+LPS (5 ug/ml)+YDE-043 0.1 uM • 31. PBMC+LPS (5 ug/ml)+YDE-043 0.01 uM • 32. PBMC+LPS (5 ug/ml)+YDE-043 0.001 uM
Multiplex assay was used to measure 30 cytokines and chemokines. The 1:2, 1:10 and 1:200 diluted cell supernatant and serial dilution of the standard were dispensed into a 96 well plate at 50 ul/well. Then, the pre-mixed cocktail of antibody-coated magnetic beads was dispensed at 50 ul/well and incubated at room temperature for 2 h in a horizontal orbital microplate shaker at 800±500 rpm. The beads were washed using a magnetic device to prevent loss. The biotin-antibody was dispensed in 50 ul of each well and incubated at room temperature for 1 h in a shaker at 800±500 rpm. After washing, streptavidin-PE was added at 50 ul/well and incubated at room temperature for 30 min in a shaker under the same conditions. Finally, after washing, wash buffer (100 ul/well) was added to the plate and incubated in a shaker for 2 min. The Luminex™ 200 setting were set according to the manufacturer's protocol. The data was calculated with a standard five-parameter logistic nonlinear regression analysis of the data (xPonent software 4.2, USA). The levels of cytokine/chemokine are normalized to the live cell counts (1×10^5 cells/mL) and presented as concentrations per mL (pg/mL or ng/mL).

[1] = PBMC + LPS(5 ug/ml) + test article 1 uM, Mean
[2] = PBMC + LPS(5 ug/ml) + test article 1 uM, single replicates
[3] = PBMC + LPS(5 ug/ml) + test article 10 uM, Mean
[4] = PBMC + LPS(5 ug/ml) + test article 10 uM, single replicates
[5] = PBMC + LPS(5 ug/ml) + test article 0.001 uM, Mean
[6] = PBMC + LPS(5 ug/ml) + test article 0.001 uM, single replicates
[7] = PBMC + LPS(5 ug/ml) + test article 0.01 uM, Mean
[8] = PBMC + LPS(5 ug/ml) + test article 0.01 uM, single replicates
[9] = PBMC + LPS(5 ug/ml) + test article 0.1 uM, Mean
[10] = PBMC + LPS(5 ug/ml) + test article 0.1 uM, single replicates

CC(C)C[C@H](NC(=O)CNC(=O)[C@H](CC(C)C)NC(=O)[C@H](CCC(N)=O)NC(=O)CNC(=O)[C@@H]1C[C@@H](O)CN1)C(=O)N[C@@H](C)C(=O)NCC(=O)N1CCC[C@H]1C(=O)N[C@@H](CCCCN)C(=O)O [YDE-011] (H-[Hyp]GQLGLAGPK-OH)
conc/live cell [1]: 0.3 pg/10^5 | Concentration [1]: 2.8 pg/mL | Concentration [2]: 0.6 pg/mL | conc/live cell [2]: 0.0 pg/10^5 and 0.1 pg/10^5 | conc/live cell [3]: 0.3 pg/10^5 | Concentration [3]: 2.1 pg/mL | Concentration [4]: 3.6 pg/mL and 0.6 pg/mL | conc/live cell [4]: 0.7 pg/10^5 and 0.0 pg/10^5 and 0.1 pg/10^5 | conc/live cell (PBMC + LPS(5 ug/ml) + test article 100 uM, Mean): 0.0 pg/10^5 | conc/live cell (PBMC + LPS(5 ug/ml) + test article 100 uM, single replicates): 0.0 pg/10^5 | Concentration, Bead name: VEGF-A [5]: 4.3 pg/mL | MFI, Bead name: VEGF-A [5]: −0.4 | conc/live cell, Bead name: VEGF-A [5]: 0.8 pg/10^5 | Concentration, Bead name: VEGF-A [6]: 6.1 pg/ml (2×) and 0.6 pg/ml | MFI, Bead name: VEGF-A [6]: 0.3 (2×) and −1.8 | conc/live cell, Bead name: VEGF-A [6]: 1.4 pg/10^5 and 0.1 pg/10^5 and 1.1 pg/10^5 | Concentration, Bead name: VEGF-A [7]: 2.8 pg/mL | MFI, Bead name: VEGF-A [7]: −1.6 | conc/live cell, Bead name: VEGF-A [7]: 0.3 pg/10^5 | Concentration, Bead name: VEGF-A [8]: 4.9 pg/mL and 0.6 pg/mL | MFI, Bead name: VEGF-A [8]: −0.3 and −2.8 and −1.8 | conc/live cell, Bead name: VEGF-A [8]: 0.8 pg/10^5 and 0.0 pg/10^5 and 0.1 pg/10^5 | Concentration, Bead name: VEGF-A [9]: 0.6 pg/mL | MFI, Bead name: VEGF-A [9]: −2.1 | conc/live cell, Bead name: VEGF-A [9]: 0.1 pg/10^5 | Concentration, Bead name: VEGF-A [10]: 0.6 pg/mL | MFI, Bead name: VEGF-A [10]: −1.8 (2×) and −2.8 | conc/live cell, Bead name: VEGF-A [10]: 0.1 pg/10^5 (2×) and 0.0 pg/10^5 | Concentration, Bead name: VEGF-A [2]: 4.9 pg/mL | MFI, Bead name: VEGF-A [2]: −0.3 | conc/live cell, Bead name: VEGF-A [2]: 0.9 pg/10^5
